# Experimental data published in patent publication US20130274352A1, “Oral Drug Devices and Drug Formulations” (The Regents of the University of California, priority 2009, published 2013).
# Like-named read-outs stand apart in the source and are kept apart here.
# Columns and labels:
# Caco-2 cells [1] = test: Toxicity potential (TP) by MTT assay and synergy (S) of mixtures; type: cell-based, human
# Experimental: As used herein “toxicity potential” or “TP” is used to assess the safety of CPEs and refers to the toxicity of one or more CPEs as determined using a Methyl Thiazole Tetrazolium (MTT) kit (American Type Culture Collection, Rockville, Md.). Caco-2 cells were seeded at 10^5 cells/well onto a 96-well plate. Enhancer solutions (100 μl) were applied for 30 minutes. 10 μl of reagent from an MTT kit (American Type Culture Collection, Rockville, Md.) was applied to each well for 5 hours, after which 100 μl of detergent was applied to each well and allowed to incubate in the dark at room temperature for about 40 hours. Absorbance was read at 570 nm (MTT dye) and 650 nm (detergent).
# TP values are reported as the fraction of nonviable cells, as compared to the negative control, DMEM. TP values range from 0 to 1, with 0 indicating no mitrochondrial toxicity, and 1 representing maximum toxicity.
# As used herein “synergy” or “S” refers to the difference between the linear average of the toxicity of the individual components and the experimentally measured toxicity of the mixture. Synergy was calculated as follows:
# S=[X1·TP1+X2·TP2+X3·TP3]−TPmix Eq. 3
# where X1, X2, and X3 are the weight fractions of single enhancers 1, 2, and 3, respectively, and TP1, TP2, TP3, and TPmix are the toxicity potentials of pure CPE 1, pure CPE 2, pure CPE 3, and the mixture of CPEs at the corresponding weight fractions X1, X2, and X3. All TP values in the equation above are obtained at the same total concentration. Since TP values can range from 0 to 1, maximum and minimum Synergy values are 1 and −1, respectively.
# Caco-2 cells were seeded at 10^5 cells/well onto a 96-well plate. Enhancer solutions (100 μl) were applied for 30 minutes. 10 μl of reagent from an MTT kit (American Type Culture Collection, Rockville, Md.) was applied to each well for 5 hours, after which 100 μl of detergent was applied to each well and allowed to incubate in the dark at room temperature for about 40 hours. Absorbance was read at 570 nm (MTT dye) and 650 nm (detergent). Toxicity potential (TP) values are reported as the fraction of nonviable cells, as compared to the negative control, DMEM. TP values range from 0 to 1, with 0 indicating no mitrochondrial toxicity, and 1 representing maximum toxicity.
# [2] = system: Caco-2 cell line (HTB-37)
# Experimental: 10 μL of MTT solution (5 mg/mL) was added to each well for 4 h (37° C.), after which 100 μL of 100% DMSO was applied and the plates were incubated for 1 hr with moderate shaking Absorbance was measured at 570 nm using a Tecan Saffire™ fluorescent microplate reader (Tecan Group Ltd, Mannedorf, Switzerland).
# Caco-2 cells [3] = test: Calcein entry into epithelial cells, fluorescence microscopy; type: cell-based, human; conditions: 0.01% PPS, 0.01% (w/v) calcein
# Experimental: A solution containing a permeation enhancer and 0.01% (w/v) calcein dissolved in phosphate buffered saline was applied to Caco-2 cells. After 30 minutes, solutions were removed and replaced with a solution containing only calcein. After 1 hour, samples were washed 3× with phosphate buffered saline and viewed with a Zeiss fluorescence microscope.
# intestinal epithelium = test: Intestinal tissue histology after PPS; type: in vivo, rat; conditions: 0.1% and 1% w/v PPS, 0.5 ml, 5 hrs, SD rats
# Experimental: Histological studies were performed to evaluate the possibility of damage caused by PPS in the intestine. […] The sections were stained using hematoxylin-eosin staining and imaged at 50× magnification using an inverted light microscope to determine signs of pathological changes.
# Caco-2 monolayer [4] = test: Confocal laser microscopy of FITC-insulin permeation with PPS; type: cell-based, human; conditions: 5 hours
# Source text: Following fixation, cells were gently washed with HBSS, membranes gently removed from the plastic insert, and were mounted on a microscopy slide with DAPI containing cell mounting media (Vectashield® Hardset®, Vector Laboratories, Burlingame, Calif.). All samples were imaged on a confocal microscope (Leica and Olympus Fluoview 500).
# [5] = Plasma sCT concentration after intestinal injection of sCT with or without PPS; type: in vivo, rat; conditions: 1% w/v PPS with sCT 3 mg/kg, SD rats
# Experimental: Adult male Sprague-Dawley (SD) rats of 275-300 g, fasted for 7 hours were used for all studies. A midline abdominal incision of 2.5-3.0 cm was made in animals anesthetized by 1.5-3.0% isoflurane to expose the gastrointestinal system. […] Incision was then closed with sterile vicryl […] (muscular), and Vetbond® tissue glue (skin). Blood samples were collected up to 5 hours by tail vein bleeding (heparinized tubes for plasma Calcium, and EDTA tubes for plasma sCT determination), and plasma was separated for analysis of both pharmacodynamic and pharmacokinetic response. Pharmacodynamic response was measured by quantifying plasma calcium levels using a colorimetric calcium assay kit (Sciencell Laboratories, Carlsbad, Calif.); and pharmacokinetic efficacy was tested by quantifying plasma concentrations of salmon calcitonin (sCT) using an extraction-free ELISA kit (Bachem Americas Inc., Torrance, Calif.) following manufacturer's protocols.
# Caco-2 monolayers [6] = test: TEER reversibility after PPS exposure; type: cell-based, human; conditions: 0.03% w/v PPS for 10 minutes or 1 hour; within 24 hours of removal
# Caco-2 monolayers [7] = test: Transwell permeability of sulforhodamine-B or FITC-insulin with PPS; type: cell-based, human
# Source text: The withdrawn sample was immediately replaced with an equivalent amount of the experimental media.
# Caco-2 monolayers [8] = system: Caco-2 monolayers
# Experimental: (§4) Upper filter supports containing viable Caco-2 monolayers were transferred into a 24-well BD Falcon plate and 1 ml of media was dispensed into each basolateral compartment. Solutions containing the CPE (“enhancer solutions”) were applied to the apical compartment and TEER readings were taken at 10 minutes. TEER recovery was assessed by removing enhancer solutions after 30 minutes, applying fresh media, and measuring TEER values at 24 hours.
# Caco-2 monolayers [9] = test: TEER over time with PPS (Example 5); type: cell-based, human; conditions: for decrease in TEER (% of initial value): 5 hours
# Experimental: Caco-2 cell line HTB-37 (ATCC, Rockville, Md.), derived from human colon cells, was used for all experiments. Cells were maintained in DMEM supplemented with 25 IU/ml of penicillin, 25 mg/L of streptomycin, 250 μg/L of amphotericin B and 100 ml/L of fetal bovine serum. Monolayers were grown on BD Biocoat™ HTS collagen filter supports (BD Biosciences, Bedford, Mass.) according to supplier instructions. At the end of the growth period, the integrity of the cell monolayer was confirmed by transepithelial electrical resistance (TEER) measurements (Millicell-ERS voltohmmeter, Millipore, Billerica, Mass.). Only monolayers with TEER values in the range of 150-200 Ω-cm^2 were used for further experimentation.
# Caco-2 monolayers [10] = test: Permeability of tritium-labeled mannitol or 70 kDa dextran across Caco-2 monolayers
# Experimental: (§1) Solutions containing CPEs and 1 μCi/ml of tritium-labeled mannitol or 70 kDa dextran (American Radiolabeled Chemicals, St. Louis, Mo.) were applied to the apical side of Caco-2 monolayers. Samples were taken from the basolateral compartment every 10 minutes for 1 hour and the radiolabeled contents were analyzed with a scintillation counter (Packard Tri-Carb 2100 TR, Meriden, Conn.).
# (§2) where ΔM is the amount of solute transported across the barrier in the time Δt, CM is the concentration of solute in the apical compartment, and Axs is the cross-sectional area of epithelium in contact with the apical solution.
# (§3) Positive control experiments were performed on BD Biocoat™ filter supports in the absence of cells.
# Caco-2 cells [11] = conditions: 0.1% enhancer
# Experimental: Enhancer solutions (100 μl) were applied for 30 minutes. 25 μl of the solution was then transferred to a fresh 96-well plate and mixed with 25 μl of LDH reagent from the CytoTox 96® assay (Promega, Madison, Wis.) and allowed to react for 30 minutes in the dark at room temperature. Stop solution (25 μl) was then added to each well, and the absorbance was read at 490 nm. LDH potential (LP) values are reported as the fraction of maximal LDH release, as determined by the positive control lysis solution provided with the assay kit (˜1% Triton-X100).
# Equation 5 was used to assess the relative contribution of transcellular and paracellular pathways to permeability of the intestinal epithelium. […] According to Equation 4, the line EP=LP corresponds to enhancers that act predominantly by the transcellular route (paracellular contributions are negligible). Enhancers lying on the vertical EP axis primarily utilize the paracellular pathway, since there is no relationship between EP and LP when transcellular contributions are negligible. The relative contribution of the paracellular pathway is higher for enhancers falling closer to the EP axis than to the EP=LP line.
# Caco-2 monolayer [12] = conditions: 0.1% enhancer (total), 10 min
# Experimental: The Examples described herein used 1% Triton X-100 as the positive control.
# All TEER values were normalized by their initial values.
# where TEERCPE and TEER+ are the resistance values (% of initial) of the enhancer solution and positive control solution, respectively, after 10 minutes of exposure. EP lies on a scale of 0 to 1, with 1 representing maximum enhancement as compared to the positive control.
# Caco-2 cell line HTB-37 (ATCC, Rockville, Md.), derived from human colon cells, was used for all experiments. Cells were maintained in DMEM supplemented with 25 IU/ml of penicillin, 25 mg/L of streptomycin, 250 ug/L of amphotericin B and 100 ml/L of fetal bovine serum. Monolayers were grown on BD Biocoat™ collagen filter supports (Discovery Labware, Bedford, Mass.) according to supplier instructions. […]
# as §4
# in vitro = conditions: human, Caco-2
# Experimental: as §1, §2, §3
# B. thailendensis = test: Minimum inhibitory concentration, broth microdilution; type: cell-based; conditions: 18 hours, 37° C.
# Experimental: Minimum inhibitory concentration against B. thailendensis was determined. Broth microdilution method was followed for MIC determination. Briefly, fresh cultures were grown on the day of experiment using the protocol described below.
# Low sodium Leuria-Bertani (LSLB) broth (10 g tryptone 1-1, 5 g yeast extract 1-1, 5 g NaCl 1-1) made in ultrapure water and sterilized via autoclaving (121° C., 15 min) was used for culturing B. thailendensis. Culturing protocol was same as given above for E. coli.
# The cultures were adjusted to 5.5×10^5 cfu/ml and used within 30 minutes to minimize change in bacterial counts. Cultures were dispensed in 96-well cell culture polypropylene plates (Corning, Lowell, Mass.) at 90 μl/well. Serial dilutions of test formulations were made at 10× concentration. Inoculums in each well were incubated with 10 μl of test formulation dilutions for 18 hours at 37° C. under humidified conditions. At the end of incubation period, the plates were visibly inspected for bacterial growth. Colonies were counted for selected wells by plating culture dilutions on LSLB plates.
# [13] = system: Primary epidermal keratinocyte cultures (HEKa); test: Keratinocyte cytotoxicity (LC50), MTT; type: cell-based, human; conditions: HEKa cells
# Experimental: Primary epidermal keratinocyte cultures from an adult human source (HEKa) were purchased from Invitrogen Corp (Carlsbad, Calif.) and used for all cytotoxicity experiments. Cells were maintained in a humidified incubator (37° C., 5% CO2), in EpiLife medium with 60 μM calcium and phenol red, supplemented with 10 ml/l human keratinocyte growth supplement, 5 IU/ml penicillin and 5 μg/ml streptomycin. All components of growth media were purchased from Invitrogen Corp (Carlsbad, Calif.). Cells were grown to 70-80% confluence in cell culture flasks (Corning, Lowell, Mass.) as per suppliers' protocols.
# At the end of the growth period, keratinocyte cells were seeded at a density of 10^4 cells/well in 96-well tissue culture treated polystyrene plates (Corning, Lowell, Mass.) and incubated overnight to allow cell attachment. Cells were supplied with fresh EpiLife medium (90 μl/well) at the start of experiment, followed by application of test formulations (10 μl/well). The final concentration of test formulations in each well was 0.0001% w/v. This concentration limit was determined based on the LC50 values of component chemicals for HEKa cell line, which were determined in a separate experiment. The cells were incubated with the test formulations for 1 hour. […] The plates were incubated for 16 hours in a humidified environment and absorbance was read at 570 nm.
molecule,measurement,setting,value
"CCCCCCCCCC[N+](C)(C)C.[Br-] [DTAB, Decyltrimethyl ammonium bromide]",TP,"Caco-2 cells [1]; 0.1% enhancer (total), 30 min",0.56
"CCCCCCCCCCCCCCCC[N+](C)(C)CCCS(=O)(=O)[O-] [PPS, Palmityldimethyl ammonio propane sulfonate]",cell viability,[2],~88%
same,toxicity on Caco-2 cells,[2]; Caco-2,no detectable toxicity
same,epithelial cells with calcein transport into the cell,Caco-2 cells [3],more than 75%
same,pathological damage to the intestinal epithelium,intestinal epithelium,no evidences of necrosis or specific inflammation
same,increase of FITC-insulin transport across the monolayer (fluorescence intensity),Caco-2 monolayer [4]; 0.01% PPS,1.3 fold
same,increase of FITC-insulin transport across the monolayer (fluorescence intensity),Caco-2 monolayer [4]; 0.03% w/v PPS,3.1 fold
same,enhancement of systemic sCT availability based on peak plasma concentrations,[5],45-50 fold
same,TEER values returned (% of initial),Caco-2 monolayers [6],90-100%
same,increase in sulforhodamine transport over negative control,Caco-2 monolayers [7]; 0.01% PPS,1.7 fold
same,increase in sulforhodamine transport over negative control,Caco-2 monolayers [7]; 0.03% PPS,2.6 fold
same,enhancement of FITC-insulin transport,Caco-2 monolayers [7]; 0.03% w/v PPS,2.3 fold
same,enhancement of FITC-insulin transport,Caco-2 monolayers [7]; lower concentrations of PPS (0.01% w/v),did not increase significantly
same,TP,"Caco-2 cells [1]; 0.01% (w/v) enhancer, 30 min",0
same,cell monolayer structure by TEER recovery,Caco-2 monolayers [8],did not damage cell monolayer structure
same,decrease in TEER (% of initial value),Caco-2 monolayers [9]; 0.01% w/v PPS,50%
same,decrease in TEER (% of initial value),Caco-2 monolayers [9]; 0.03% w/v PPS,~70%
same,drop in TEER,"Caco-2 monolayers [9]; higher concentration (0.03% w/v PPS), 15 minutes",−50%
"c1ccc(N2CCNCC2)cc1 [PPZ, Phenyl piperazine]",increase of 70 kDa dextran permeability,"Caco-2 monolayers [10]; enhancer at 0.1%, 70 kDa dextran",> 11 fold
same,increase of mannitol permeability,"Caco-2 monolayers [10]; enhancer at 0.1%, mannitol",more than 14 fold
same,K,Caco-2 cells [11],0.86
same,TP,"Caco-2 cells [1]; 0.1% enhancer (total), 30 min",0.09
same,"TEER recovery, % of original value","Caco-2 monolayers [8]; after removal of 0.1% PPZ, within 24 hours",100%
same,EP,Caco-2 monolayer [12],0.95
CCN(CC)c1ccc2c(-c3ccc(S(=O)(=O)O)cc3S(=O)(=O)[O-])c3ccc(=[N+](CC)CC)cc-3oc2c1 [Sulforhodamine-B],% Transport,"Caco-2 monolayers [7]; PPS 0.01%, 0.15 mg",3.3 ± 0.4%
same,Apparent Permeability (Papp),"Caco-2 monolayers [7]; PPS 0.01%, 0.15 mg",6.0 ± 0.6 10^−6 cm/s
same,% Transport,"Caco-2 monolayers [7]; PPS 0.03%, 0.15 mg",5.1 ± 0.9%
same,Apparent Permeability (Papp),"Caco-2 monolayers [7]; PPS 0.03%, 0.15 mg",9.1 ± 1.6 10^−6 cm/s
same,% Transport,"Caco-2 monolayers [7]; no PPS, 0.15 mg",1.9 ± 1.3%
same,Apparent Permeability (Papp),"Caco-2 monolayers [7]; no PPS, 0.15 mg",3.5 ± 2.3 10^−6 cm/s
"OC[C@@H](O)[C@@H](O)[C@H](O)[C@H](O)CO [mannitol, reference compound]","Papp A→B at 1 h, 1 μCi/ml",in vitro,0.43 ×10⁻⁶ cm/s
"FITC-insulin: tracer molecule, FITC-insulin (˜6,000 da)",Apparent Permeability (Papp),Caco-2 monolayers [7]; Caco-2,15.6 ± 0.7 10^−6 cm/s
Sodium laureth sulfate [SLA],TP,Caco-2 cells [1],0.88
benzalkoniium chloride [BZK],MIC,B. thailendensis,0.00048 % w/v
same,LC50,[13],0.00078 % w/v
dextran [reference compound],average permeability in the absence of CPEs,"Caco-2 monolayers [10]; no CPE, Caco-2 monolayers",4.9×10^−7±2.3×10^−7
sorbitan monolaurate [S20],MIC,B. thailendensis,low antibacterial potency
same,LC50,[13],negligible toxicity
